Patent publication US9567322B2, “Substituted tetrahydropyrans and method of use” (AbbVie S.á.r.l., priority 2014, dated 2017)

Columns and labels:
F508del/F508del CFTR = target: T1, F508del/F508del CFTR (Homo sapiens, UniProt P13569, DEL508-508); experiment: Transepithelial Clamp Circuit (TECC-24) conductance assay on primary human bronchial epithelial cells; assay type: cell-based; settings: primary hBE cells from F508del/F508delCFTR patients; for EC50: equivalent short circuit current (Ieq), correctors 18-24 hours at 37° C., with control potentiator, 6 test concentrations; for Maximum % activity: relative to positive control (3 μM) coupled with control potentiator = 100%
T1 construct: cells isolated from CF patients with the homozygous mutation; endogenous in cells; host or cells: primary human bronchial epithelial (hBE) cells from F508del/F508del CF patients
T1 sequence (P13569 with tags, fused parts or gaps DEL508-508): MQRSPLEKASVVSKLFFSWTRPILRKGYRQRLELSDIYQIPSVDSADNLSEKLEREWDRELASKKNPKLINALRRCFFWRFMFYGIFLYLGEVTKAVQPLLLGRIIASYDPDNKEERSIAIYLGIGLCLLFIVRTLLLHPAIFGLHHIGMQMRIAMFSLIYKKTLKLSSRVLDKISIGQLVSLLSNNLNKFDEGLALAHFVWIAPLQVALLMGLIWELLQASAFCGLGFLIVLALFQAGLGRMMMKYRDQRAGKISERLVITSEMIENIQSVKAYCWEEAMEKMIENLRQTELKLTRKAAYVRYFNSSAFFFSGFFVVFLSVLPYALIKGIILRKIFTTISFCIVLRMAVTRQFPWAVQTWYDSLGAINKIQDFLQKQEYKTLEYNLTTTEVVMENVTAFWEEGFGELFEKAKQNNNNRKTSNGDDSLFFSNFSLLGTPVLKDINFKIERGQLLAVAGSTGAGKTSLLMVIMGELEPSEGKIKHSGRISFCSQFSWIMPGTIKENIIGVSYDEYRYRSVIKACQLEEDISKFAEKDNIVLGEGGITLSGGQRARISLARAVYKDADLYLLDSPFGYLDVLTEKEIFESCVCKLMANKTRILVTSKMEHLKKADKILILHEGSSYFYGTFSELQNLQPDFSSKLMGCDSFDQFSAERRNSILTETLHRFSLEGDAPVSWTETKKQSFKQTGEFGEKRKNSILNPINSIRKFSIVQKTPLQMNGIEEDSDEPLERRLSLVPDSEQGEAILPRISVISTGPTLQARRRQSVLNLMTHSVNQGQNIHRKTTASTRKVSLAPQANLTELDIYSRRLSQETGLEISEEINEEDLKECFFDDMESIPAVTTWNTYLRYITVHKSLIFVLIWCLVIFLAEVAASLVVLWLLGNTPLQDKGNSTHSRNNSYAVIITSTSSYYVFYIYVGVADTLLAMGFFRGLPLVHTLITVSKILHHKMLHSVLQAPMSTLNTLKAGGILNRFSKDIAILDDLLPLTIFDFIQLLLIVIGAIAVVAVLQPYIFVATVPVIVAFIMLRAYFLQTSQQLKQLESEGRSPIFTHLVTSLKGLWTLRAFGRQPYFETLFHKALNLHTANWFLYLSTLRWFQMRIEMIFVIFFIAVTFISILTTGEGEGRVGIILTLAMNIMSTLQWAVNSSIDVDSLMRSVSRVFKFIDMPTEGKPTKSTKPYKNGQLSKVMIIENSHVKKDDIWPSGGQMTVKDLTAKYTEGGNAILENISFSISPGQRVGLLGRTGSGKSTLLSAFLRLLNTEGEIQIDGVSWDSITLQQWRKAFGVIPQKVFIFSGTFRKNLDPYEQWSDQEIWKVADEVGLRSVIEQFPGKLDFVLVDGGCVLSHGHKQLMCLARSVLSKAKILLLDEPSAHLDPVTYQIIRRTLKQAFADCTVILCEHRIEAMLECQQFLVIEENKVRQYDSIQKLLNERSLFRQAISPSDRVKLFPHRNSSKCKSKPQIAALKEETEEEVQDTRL
Source text: Transepithelial Clamp Circuit on Human Bronchial Epithelial Cells Conductance Assay:
A cell based assay using the primary human bronchial epithelial cells (hBE) was used as a secondary assay to test novel F508delCFTR correctors for their activity on primary hBE cells with F508del/F508del CFTR mutation. The assay used a TECC-24 (Transepithelial Clamp Circuit for 24 wells) instrument that measures the functionality of the mutated channel by measuring the equivalent short circuit current (Ieq) generated by the polarized epithelial cells. The instrument works by measuring the transepithelial potential difference (Vt) and transepithelial resistance (Rt) in an open circuit format, and the Ieq is calculated by using Ohms law (Ieq=Vt/Rt). The assay was run in a 24-well format and all 24-wells were measured at the same time point giving a higher throughput for this assay.
Primary human bronchial epithelial (hBE) cells from F508del/F508delCFTR patients were expanded from 1×10^6 to 250×10^6 cells (Neuberger T, Burton B, Clark H and VanGoor F; Cystic Fibrosis, Methods in Mole Biol 741; eds. Amaral M D and Kunzelmann K, 2011). For this purpose, cells isolated from CF patients with the homozygous mutation were seeded onto 24 well Corning (Cat #3378) filter plates that were coated with 3T3 conditioned media and grown at an air-liquid interface for 35 days using an Ultroser® G supplemented differentiation media. Apical surface mucus was removed 72 hours before the experiment using 3 mM dithiothreitol (DTT) in phosphate buffered saline (PBS). The apical surface was washed again 24 hours before the experiment using PBS. The cells were incubated with the desired dose response of the corrector compounds 18-24 hours at 37° C., 5% CO2. The corrector compounds are only added on the basolateral side of the epithelial cells.
On the day of measuring the corrector activity on the TECC, the cells were switched into a bicarbonate and serum free F-12 Coon's medium and allowed to equilibrate for 90 minutes in a CO2 free incubator. At the time of measurement, the apical and basolateral sides of the filter were bathed with the F-12 Coon's modification media (with 20 mM 4-(2-hydroxyethyl)-1-piperazineethanesulfonic acid (HEPES), pH 7.4 (using 1 M tris(hydroxymethyl)aminomethane (Tris)), and the measurements were made at 36.5° C. Transepithelial voltage (Vt) and transepithelial resistance (Rt) were measured using a 24 channel transepithelial current clamp (TECC-24). Current responses to the sequential addition of benzamil (apical 6 M addition; for inhibiting epithelial ENaC channel), forskolin (apical and basolateral 10 M addition; for activating the CFTR channel), control potentiator (N-(3-carbamoyl-5,5,7,7-tetramethyl-4,7-dihydro-5H-thieno[2,3-c]pyran-2-yl)-1H-pyrazole-5-carboxamide; apical and basolateral 1 M addition; for potentiating the CFTR channel) and bumetanide (basolateral 20 μM addition; for inhibiting the Na:2Cl:K co-transporter, an indirect measure of inhibiting the Cl-secretion driven by CFTR channel) were measured.
All plates contained negative controls (dimethyl sulfoxide, DMSO) which coupled with the control potentiator (N-(3-carbamoyl-5,5,7,7-tetramethyl-4,7-dihydro-5H-thieno[2,3-c]pyran-2-yl)-1H-pyrazole-5-carboxamide) sets the null response and positive controls (3 μM of 3-[(2R,4R)-4-({[1-(2,2-difluoro-1,3-benzodioxol-5-yl)cyclopropyl]carbonyl}amino)-7-methoxy-3,4-dihydro-2H-chromen-2-yl]benzoic acid) coupled with the control potentiator sets the 100% response to measure the correction of the mutated CFTR channel. The maximum percent activity is reported relative to the positive control value.
The % activity measured at each of the 6 test concentrations of the test compound was normalized to the on-plate positive control using the following formula: % activity=[(test compound response−DMSO response)/(positive control response−DMSO response)]*100 […]

F508delCFTR = target: T2, F508delCFTR (Homo sapiens, UniProt P13569, DEL508-508); experiment: Cell Surface Expression-Horse Radish Peroxidase (CSE-HRP) assay; assay type: cell-based; settings: CFBE41o-F508delCFTR-HRP cells; for EC50: cell surface expression, luminescence readout, 18-24 hours at 33° C., highest concentration tested 20 μM, 8-point curve; for Maximum % activity: maximum at any tested concentration, normalized to on-plate positive control (3 μM) and DMSO
T2 construct: expressed in transfected cells; host or cells: CFBE41o- (CFBE41o-F508delCFTR-HRP), doxycycline-inducible
T2 sequence (P13569 with tags, fused parts or gaps DEL508-508): as above
In short: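 CFBE41o- cells expressing F508delCFTR with HRP in the fourth extracellular loop were doxycycline-induced (0.5 μg/mL) for 72 h at 37 °C, then treated 18-24 h at 33 °C with an 8-point 3-fold series from 20 μM. Surface HRP luminescence (luminol) was normalized to DMSO and positive control; EC50 came from variable-slope sigmoidal fits of triplicate plates.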

| Compound | EC50 (F508del/F508del CFTR) [µM] | Maximum % activity (F508del/F508del CFTR) [%] | EC50 (F508delCFTR) [µM] | Maximum % activity (F508delCFTR) [%] | Maximum % activity (F508delCFTR; 3 µM) [%] |
| --- | --- | --- | --- | --- | --- |
| O=C(O)c1ccc([C@H]2C[C@@H](NC(=O)C3(c4ccc5c(c4)OC(F)(F)O5)CC3)CCO2)cc1 (racemic) [Example 14, rac-4-[(2R,4S)-4-({[1-(2,2-difluoro-1,3-benzodioxol-5-yl)cyclopropyl]carbonyl}amino)tetrahydro-2H-pyran-2-yl]benzoic acid] | 1.34 | 73 | 2.86 | 113 | – |
| Cc1cc(C(=O)O)ccc1[C@H]1C[C@H](NC(=O)C2(c3ccc4c(c3)OC(F)(F)O4)CC2)C[C@@H](c2ccccc2)O1 (racemic) [Example 65, rac-4-[(2R,4R,6S)-4-({[1-(2,2-difluoro-1,3-benzodioxol-5-yl)cyclopropyl]carbonyl}amino)-6-phenyltetrahydro-2H-pyran-2-yl]-3-methylbenzoic acid] | – | 84 | – | – | 100 |
| O=C(N[C@@H]1CCO[C@@H](c2ccc(Br)cc2)C1)C1(c2ccc3c(c2)OC(F)(F)O3)CC1 [Example 20, N-[(2R,4R)-2-(4-bromophenyl)tetrahydro-2H-pyran-4-yl]-1-(2,2-difluoro-1,3-benzodioxol-5-yl)cyclopropanecarboxamide] | – | – | 7.3 | 45 | – |
| O=C(N[C@H]1CCO[C@H](c2ccc(Br)cc2)C1)C1(c2ccc3c(c2)OC(F)(F)O3)CC1 [Example 21, N-[(2S,4S)-2-(4-bromophenyl)tetrahydro-2H-pyran-4-yl]-1-(2,2-difluoro-1,3-benzodioxol-5-yl)cyclopropanecarboxamide] | – | – | 7.72 | 59 | – |
| O=C(O)c1cccc([C@@H]2C[C@H](NC(=O)C3(c4ccc5c(c4)OC(F)(F)O5)CC3)C[C@H](c3ccccc3)O2)c1 [Example 26, 3-[(2S,4R,6R)-4-({[1-(2,2-difluoro-1,3-benzodioxol-5-yl)cyclopropyl]carbonyl}amino)-6-phenyltetrahydro-2H-pyran-2-yl]benzoic acid] | – | – | ≥ 20 | 16 | – |
| COC(=O)c1ccc([C@@H]2C[C@H](NC(=O)C3(c4ccc5c(c4)OC(F)(F)O5)CC3)CCO2)cc1 [Example 28, methyl 4-[(2S,4R)-4-({[1-(2,2-difluoro-1,3-benzodioxol-5-yl)cyclopropyl]carbonyl}amino)tetrahydro-2H-pyran-2-yl]benzoate] | – | – | 3.31 | 73 | – |
| O=C(O)c1ccc([C@@H]2C[C@H](NC(=O)C3(c4ccc5c(c4)OC(F)(F)O5)CC3)CCO2)cc1 [Example 30, 4-[(2S,4R)-4-({[1-(2,2-difluoro-1,3-benzodioxol-5-yl)cyclopropyl]carbonyl}amino)tetrahydro-2H-pyran-2-yl]benzoic acid] | – | – | 9.57 | 26 | – |

Continued by falling EC50 (F508delCFTR), values first:

| EC50 (F508del/F508del CFTR) [µM] | Maximum % activity (F508del/F508del CFTR) [%] | EC50 (F508delCFTR) [µM] | Maximum % activity (F508delCFTR) [%] | Maximum % activity (F508delCFTR; 3 µM) [%] | Compound |
| --- | --- | --- | --- | --- | --- |
| – | – | 2.58 | 88 | – | O=C(O)c1ccc(C2CC(NC(=O)C3(c4ccc5c(c4)OC(F)(F)O5)CC3)CC(C3CC3)O2)cc1 (stereo not shown) [Example 44, 4-[6-cyclopropyl-4-({[1-(2,2-difluoro-1,3-benzodioxol-5-yl)cyclopropyl]carbonyl}amino)tetrahydro-2H-pyran-2-yl]benzoic acid] |
| 1.03 | 87 | 2.23 | 100 | – | O=C(O)c1cccc([C@H]2C[C@@H](NC(=O)C3(c4ccc5c(c4)OC(F)(F)O5)CC3)CCO2)c1 [Example 19, 3-[(2R,4S)-4-({[1-(2,2-difluoro-1,3-benzodioxol-5-yl)cyclopropyl]carbonyl}amino)tetrahydro-2H-pyran-2-yl]benzoic acid] |
| – | – | 1.8 | 70 | – | COC(=O)c1ccc([C@@H]2C[C@@H](NC(=O)C3(c4ccc5c(c4)OC(F)(F)O5)CC3)C[C@H](c3ccc(C(=O)OC)cc3)O2)cc1 [Example 52, dimethyl rac-4,4′-[(2R,4r,6S)-4-({[1-(2,2-difluoro-1,3-benzodioxol-5-yl)cyclopropyl]carbonyl}amino)tetrahydro-2H-pyran-2,6-diyl]dibenzoate] |
| – | – | 1.05 | 107 | – | COC(=O)c1ccc([C@H]2C[C@@H](NC(=O)C3(c4ccc5c(c4)OC(F)(F)O5)CC3)CCO2)cc1 [Example 29, methyl 4-[(2R,4S)-4-({[1-(2,2-difluoro-1,3-benzodioxol-5-yl)cyclopropyl]carbonyl}amino)tetrahydro-2H-pyran-2-yl]benzoate] |
| – | – | 0.76 | 103 | – | COC(=O)c1ccc([C@@H]2C[C@H](NC(=O)C3(c4ccc5c(c4)OC(F)(F)O5)CC3)C[C@H](c3ccc(C(=O)OC)cc3)O2)cc1 [Example 51, dimethyl rac-4,4′-[(2R,4s,6S)-4-({[1-(2,2-difluoro-1,3-benzodioxol-5-yl)cyclopropyl]carbonyl}amino)tetrahydro-2H-pyran-2,6-diyl]dibenzoate] |
| 0.34 | 76 | 0.5 | 109 | – | O=C(O)c1cccc([C@H]2C[C@@H](NC(=O)C3(c4ccc5c(c4)OC(F)(F)O5)CC3)C[C@@H](c3ccccc3)O2)c1 (racemic) [Example 24, rac-3-[(2R,4S,6S)-4-({[1-(2,2-difluoro-1,3-benzodioxol-5-yl)cyclopropyl]carbonyl}amino)-6-phenyltetrahydro-2H-pyran-2-yl]benzoic acid] |
| 0.33 | 91 | 0.41 | 90 | – | Cc1cc(C(=O)O)cc([C@H]2C[C@@H](NC(=O)C3(c4ccc5c(c4)OC(F)(F)O5)CC3)C[C@@H](c3ccccc3)O2)c1 (racemic) [Example 73, rac-3-[(2R,4S,6S)-4-({[1-(2,2-difluoro-1,3-benzodioxol-5-yl)cyclopropyl]carbonyl}amino)-6-phenyltetrahydro-2H-pyran-2-yl]-5-methylbenzoic acid] |
| 0.2 | – | 0.37 | – | – | Cc1cc(C(=O)O)ccc1[C@H]1C[C@H](NC(=O)C2(c3ccc4c(c3)OC(F)(F)O4)CC2)C[C@@H](c2ccccc2)O1 (single isomer, unassigned) [Example 65] |
| 0.26 | 73 | 0.3 | 81 | – | O=C(O)c1ccc([C@H]2C[C@@H](NC(=O)C3(c4ccc5c(c4)OC(F)(F)O5)CC3)C[C@@H](c3ccccc3)O2)cc1 (single isomer, unassigned) [Example 53] |
| 0.14 | 83 | 0.27 | 97 | – | O=C(O)c1ccc([C@H]2C[C@@H](NC(=O)C3(c4ccc5c(c4)OC(F)(F)O5)CC3)C[C@@H](c3ccccc3)O2)c(F)c1 (racemic) [Example 60, rac-4-[(2R,4S,6S)-4-({[1-(2,2-difluoro-1,3-benzodioxol-5-yl)cyclopropyl]carbonyl}amino)-6-phenyltetrahydro-2H-pyran-2-yl]-3-fluorobenzoic acid] |
